Each block holds one compound with its values, some of them ahead of it.
Experiments:
PKG Iα = target: T1, PKG Iα (Homo sapiens, UniProt Q13976); settings: cited from earlier work
T1 sequence (Q13976 1-671): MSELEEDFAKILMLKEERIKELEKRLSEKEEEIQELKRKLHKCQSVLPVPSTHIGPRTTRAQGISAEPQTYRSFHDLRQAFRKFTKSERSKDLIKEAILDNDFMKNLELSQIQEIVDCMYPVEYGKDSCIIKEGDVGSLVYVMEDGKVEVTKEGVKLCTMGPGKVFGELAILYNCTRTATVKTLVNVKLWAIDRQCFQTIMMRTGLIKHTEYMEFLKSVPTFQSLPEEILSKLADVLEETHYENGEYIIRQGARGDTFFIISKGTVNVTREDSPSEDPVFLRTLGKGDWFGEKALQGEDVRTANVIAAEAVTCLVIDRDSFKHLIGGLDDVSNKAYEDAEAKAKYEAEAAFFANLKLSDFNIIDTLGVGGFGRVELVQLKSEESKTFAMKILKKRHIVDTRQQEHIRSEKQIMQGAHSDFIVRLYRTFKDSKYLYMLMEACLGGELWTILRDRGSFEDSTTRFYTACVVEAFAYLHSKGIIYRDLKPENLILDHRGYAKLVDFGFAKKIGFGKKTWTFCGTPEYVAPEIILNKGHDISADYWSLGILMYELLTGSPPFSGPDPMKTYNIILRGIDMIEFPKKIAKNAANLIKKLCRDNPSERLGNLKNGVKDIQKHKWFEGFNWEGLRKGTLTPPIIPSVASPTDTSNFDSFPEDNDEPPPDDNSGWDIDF

[1] = Water solubility of alkyl spacer PLDs; format: physicochemical; settings: alkyl spacers with moderate size
PKG Iβ = target: T2, PKG Iβ (Homo sapiens, UniProt Q13976); assay: In vitro activation of PKG Iβ, ADP-Glo Kinase Assay (luminescence), VASPtide substrate; format: biochemical; settings: compound lacking PET moiety vs compound 5
T2 construct: made in house; host or cells: Sf9 cells
T2 sequence (Q13976 1-686 isoform Q13976-2): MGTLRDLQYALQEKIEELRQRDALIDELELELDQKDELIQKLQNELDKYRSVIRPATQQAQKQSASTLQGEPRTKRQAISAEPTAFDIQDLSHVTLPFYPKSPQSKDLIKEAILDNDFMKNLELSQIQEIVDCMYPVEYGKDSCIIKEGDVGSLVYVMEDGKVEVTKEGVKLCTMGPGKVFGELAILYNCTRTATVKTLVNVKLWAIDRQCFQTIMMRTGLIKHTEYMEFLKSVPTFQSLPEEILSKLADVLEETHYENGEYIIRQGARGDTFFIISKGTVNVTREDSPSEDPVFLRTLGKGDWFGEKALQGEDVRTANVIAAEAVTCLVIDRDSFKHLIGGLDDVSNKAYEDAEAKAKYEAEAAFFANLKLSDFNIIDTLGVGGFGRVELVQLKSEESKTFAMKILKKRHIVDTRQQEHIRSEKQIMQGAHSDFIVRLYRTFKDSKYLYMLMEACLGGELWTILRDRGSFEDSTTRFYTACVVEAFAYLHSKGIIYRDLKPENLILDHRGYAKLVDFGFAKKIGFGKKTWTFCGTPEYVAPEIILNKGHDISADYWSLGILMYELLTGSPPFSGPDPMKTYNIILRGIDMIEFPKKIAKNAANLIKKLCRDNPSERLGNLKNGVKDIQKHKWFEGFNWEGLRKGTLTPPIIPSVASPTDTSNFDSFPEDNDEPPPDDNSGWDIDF

PKG II = target: T3, PKG II (Homo sapiens, UniProt Q13237); assay: In vitro activation of PKG II, ADP-Glo Kinase Assay (luminescence), VASPtide substrate; settings: compound lacking PET moiety vs compound 5
T3 sequence (Q13237 1-762): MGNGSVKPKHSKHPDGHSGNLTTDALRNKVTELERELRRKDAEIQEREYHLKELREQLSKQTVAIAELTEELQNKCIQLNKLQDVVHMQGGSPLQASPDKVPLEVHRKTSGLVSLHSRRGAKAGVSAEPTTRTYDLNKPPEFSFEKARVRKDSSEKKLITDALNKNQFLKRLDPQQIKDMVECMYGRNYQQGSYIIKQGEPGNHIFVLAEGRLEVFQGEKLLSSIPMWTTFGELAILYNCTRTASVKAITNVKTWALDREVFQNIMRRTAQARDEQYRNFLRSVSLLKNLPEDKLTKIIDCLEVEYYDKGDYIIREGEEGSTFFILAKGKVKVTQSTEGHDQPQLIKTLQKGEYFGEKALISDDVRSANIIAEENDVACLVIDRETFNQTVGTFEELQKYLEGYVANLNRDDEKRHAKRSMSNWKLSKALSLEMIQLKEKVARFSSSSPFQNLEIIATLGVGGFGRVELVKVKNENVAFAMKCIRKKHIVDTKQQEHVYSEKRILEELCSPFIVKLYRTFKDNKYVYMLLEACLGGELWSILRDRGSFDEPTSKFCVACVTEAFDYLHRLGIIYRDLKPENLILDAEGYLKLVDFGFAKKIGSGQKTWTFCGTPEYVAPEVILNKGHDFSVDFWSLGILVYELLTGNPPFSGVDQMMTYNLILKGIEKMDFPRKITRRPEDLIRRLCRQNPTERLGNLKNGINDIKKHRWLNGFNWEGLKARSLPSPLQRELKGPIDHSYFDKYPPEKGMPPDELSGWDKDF

SMILES: Nc1nc2c(nc(Sc3ccccc3N)n2[C@@H]2O[C@@H]3COP(=O)(O)O[C@H]3[C@H]2O)c(=O)[nH]1 [8-APT-cGMP, 8-(2-NH2-Ph-S)-cGMP]
- PKG Iα activation potential compared to cGMP (literature) (PKG Iα): about 15 fold

- water solubility [1]: sufficient water solubility
SMILES: Nc1nc2c(nc(SCCCCCCCCCCCCSc3nc4c(=O)[nH]c(N)nc4n3[C@@H]3OC4COP(=O)(O)O[C@H]4C3O)n2[C@@H]2OC3COP(=O)(O)O[C@H]3C2O)c(=O)[nH]1 (stereo partly shown) [compound 16, Guanosine-3′,5′-cyclic monophosphate-[8-thio(dodecanyl)-thio-8]-guanosine-3′,5′-cyclic monophosphate]

SMILES: Nc1nc2c(nc(SCC(=O)NCCOCCOCCOCCOCCOCCOCCOCCOCCNC(=O)CSc3nc4c(=O)[nH]c(N)nc4n3C3OC4COP(=O)(O)OC4C3O)n2C2OC3COP(=O)(O)OC3C2O)c(=O)[nH]1 (stereo not shown) [compound 3, Guanosine-3′,5′-cyclic monophosphate-[8-thiomethylamido-(octaethoxy)-ethylamidomethylthio-8]-guanosine-3′,5′-cyclic monophosphate]
- decrease of relative PKG Iβ activation compared to compound 5 (PKG Iβ): more than 51 fold
- increase of relative PKG II activation compared to compound 5 (PKG II): 30 fold
